Earlier results, collected in patent US20030109678A1, “Methods and means for regulation of gene expression” (priority 2000, published 2003).

Target: mutated form of the human estrogen receptor (ER), G521R mutation (Homo sapiens, UniProt P03372, G521R)
Sequence (P03372 whole entry G521R): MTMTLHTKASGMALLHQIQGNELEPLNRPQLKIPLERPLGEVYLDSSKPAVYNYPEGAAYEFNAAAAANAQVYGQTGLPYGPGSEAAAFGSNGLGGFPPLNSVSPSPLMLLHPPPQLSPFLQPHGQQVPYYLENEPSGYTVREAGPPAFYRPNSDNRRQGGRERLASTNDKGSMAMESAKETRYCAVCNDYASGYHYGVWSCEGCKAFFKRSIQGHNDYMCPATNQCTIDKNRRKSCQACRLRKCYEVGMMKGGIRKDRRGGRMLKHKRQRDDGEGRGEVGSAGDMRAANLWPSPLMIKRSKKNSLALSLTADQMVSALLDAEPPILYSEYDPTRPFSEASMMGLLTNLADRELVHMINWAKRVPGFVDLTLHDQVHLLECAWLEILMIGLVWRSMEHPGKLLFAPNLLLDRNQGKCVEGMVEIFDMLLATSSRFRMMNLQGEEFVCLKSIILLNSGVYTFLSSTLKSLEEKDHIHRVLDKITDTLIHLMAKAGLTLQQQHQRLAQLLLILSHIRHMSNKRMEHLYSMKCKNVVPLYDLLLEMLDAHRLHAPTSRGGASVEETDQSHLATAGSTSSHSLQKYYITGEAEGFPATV

Substance: 4-hydroxytamoxifen
- binding by G521R ER: efficiently binds
